Usually IC50 stands for the concentration needed to halve the response being measured.

Structures are written as SMILES.

The text below walks through data of paper PMC6191185 (Cancer cell, 2018).

This test concerns the target T1, CARM1 (co-activator associated arginine methyltransferase 1, PRMT4) (Homo sapiens, UniProt Q86X55).
T1 sequence (Q86X55 2-608): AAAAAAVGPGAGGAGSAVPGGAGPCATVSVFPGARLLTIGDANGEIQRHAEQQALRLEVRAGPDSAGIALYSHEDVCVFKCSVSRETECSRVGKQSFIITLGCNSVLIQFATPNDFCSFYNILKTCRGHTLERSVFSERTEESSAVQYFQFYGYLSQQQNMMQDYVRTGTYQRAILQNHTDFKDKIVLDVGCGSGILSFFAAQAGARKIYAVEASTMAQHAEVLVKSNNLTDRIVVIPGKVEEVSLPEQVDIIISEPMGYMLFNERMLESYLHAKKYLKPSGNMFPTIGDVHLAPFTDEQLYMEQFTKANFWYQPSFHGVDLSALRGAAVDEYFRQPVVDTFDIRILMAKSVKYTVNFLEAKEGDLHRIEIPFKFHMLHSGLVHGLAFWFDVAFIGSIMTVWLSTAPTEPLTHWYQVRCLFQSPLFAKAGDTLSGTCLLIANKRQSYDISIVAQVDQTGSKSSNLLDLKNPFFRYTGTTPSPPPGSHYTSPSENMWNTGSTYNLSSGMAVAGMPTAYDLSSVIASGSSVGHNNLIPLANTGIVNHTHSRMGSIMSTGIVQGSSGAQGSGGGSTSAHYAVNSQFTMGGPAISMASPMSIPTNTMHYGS
The experiment in a line: cellular CARM1 substrate methylation. It counts as cell-based.

Take `CNC[C@@H](O)COc1ccc(Cl)c(-c2nc(-c3c(C)noc3C)c(C)c(N3Cc4cnc(N5CCC5)nc4C3)n2)c1` [EPZ025654]: the IC50 is 18 nM.
